Reference: publication PMC10746543, “Design principles for cyclin K molecular glue degraders” (Nature Chemical Biology, 2023)
Values joined by “and” are separate entries in the source; they are usually repeats but may differ in a detail not shown here. Equal entries are not always repeated. Where two headings read alike, the source gives them in different places.

Columns and labels:
CDK12–cyclin K = CDK12–cyclin K (Homo sapiens, UniProt Q9NYV4); assay: Lanthascreen kinase binding assay, CDK12; settings: for Lanthascreen raw signal, sheet CDK12: series r1, duplicates
Experimental: (§1) Lanthascreen experiments were performed using commercially available reagents (Thermo Fisher) and according to the manufacturer’s instructions.

CDK12–cyclin K and DDB1 = molecular target: T1, CDK12–cyclin K and DDB1 (Homo sapiens, UniProt Q16531+Q9NYV4, K965R); assay: TR-FRET ternary complex formation assay (compound titration); type: binding
T1 construct: His6–CDK12 (a.a. 713–1,052); full-length or beta-propeller B domain deletion (ΔBPB: a.a. 396–705 deleted) constructs of His6–DDB1ΔBPB, StrepII–Avi–DDB1, or His6–Spy–DDB1; made in house; host or cells: Trichoplusia ni High Five insect cells (baculovirus)
Summary of the method: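 Background fluorescence is reduced by reading 70 μs after excitation, and complex formation is followed as the 520:490 nm fluorescence ratio.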

HEK293T cells = assay: Drug sensitivity assay (CellTiter-Glo viability) with or without MLN4924 pretreatment; type: cell-based, human; settings: Supplementary Table 2
Summary of the method: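 First, cells (HEK293T–Cas9, 0.15 × 10^6 ml^−1) are exposed to DMSO or 100 nM MLN4924. Next, drugs follow at 2 h. Finally, CellTiter-Glo is read at day 3 and normalised to DMSO.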

CDK2–cyclin A = molecular target: T2, CDK2–cyclin A (Homo sapiens, UniProt P24941); assay: Lanthascreen kinase binding assay, CDK2; settings: for Lanthascreen signal, sheet CDK2: raw replicates, experiment r1-r11
T2 construct: purchased Thermo Fisher
Experimental: as §1

[1] = system: cyclin K–eGFP degradation reporter; assay: Cyclin K reporter stability analysis (dual-color cyclin K–eGFP reporter); type: cell-based, human; settings: source data sheet correlations; read-out: DC50
Summary of the method: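 Cells (HEK293T–Cas9, reporter-expressing) at 1 × 10^6 ml^−1; 5 h compound or DMSO; flow cytometry; gMFI eGFP ÷ mCherry on round mCherry-positive events; normalized to 3 DMSO controls.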

CDK9–cyclin T = molecular target: T3, CDK9–cyclin T (Homo sapiens, UniProt P50750); assay: Lanthascreen kinase binding assay, CDK9; settings: for Lanthascreen TR-FRET signal (raw ratio), sheet CDK9: first titration set (r1), duplicates
T3 construct: purchased Thermo Fisher
Experimental: as §1

T3 sequence (P50750 whole entry): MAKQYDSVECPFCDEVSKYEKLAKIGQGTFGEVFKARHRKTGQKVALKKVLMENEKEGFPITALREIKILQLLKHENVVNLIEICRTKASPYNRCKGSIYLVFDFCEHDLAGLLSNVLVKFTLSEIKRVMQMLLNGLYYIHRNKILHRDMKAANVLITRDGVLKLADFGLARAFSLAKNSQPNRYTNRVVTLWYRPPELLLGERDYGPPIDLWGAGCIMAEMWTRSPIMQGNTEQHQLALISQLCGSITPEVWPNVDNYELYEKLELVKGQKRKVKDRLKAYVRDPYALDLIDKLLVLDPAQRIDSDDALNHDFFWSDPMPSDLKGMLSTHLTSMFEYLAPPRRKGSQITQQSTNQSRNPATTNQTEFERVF
T3 sequence (O60563 whole entry partner): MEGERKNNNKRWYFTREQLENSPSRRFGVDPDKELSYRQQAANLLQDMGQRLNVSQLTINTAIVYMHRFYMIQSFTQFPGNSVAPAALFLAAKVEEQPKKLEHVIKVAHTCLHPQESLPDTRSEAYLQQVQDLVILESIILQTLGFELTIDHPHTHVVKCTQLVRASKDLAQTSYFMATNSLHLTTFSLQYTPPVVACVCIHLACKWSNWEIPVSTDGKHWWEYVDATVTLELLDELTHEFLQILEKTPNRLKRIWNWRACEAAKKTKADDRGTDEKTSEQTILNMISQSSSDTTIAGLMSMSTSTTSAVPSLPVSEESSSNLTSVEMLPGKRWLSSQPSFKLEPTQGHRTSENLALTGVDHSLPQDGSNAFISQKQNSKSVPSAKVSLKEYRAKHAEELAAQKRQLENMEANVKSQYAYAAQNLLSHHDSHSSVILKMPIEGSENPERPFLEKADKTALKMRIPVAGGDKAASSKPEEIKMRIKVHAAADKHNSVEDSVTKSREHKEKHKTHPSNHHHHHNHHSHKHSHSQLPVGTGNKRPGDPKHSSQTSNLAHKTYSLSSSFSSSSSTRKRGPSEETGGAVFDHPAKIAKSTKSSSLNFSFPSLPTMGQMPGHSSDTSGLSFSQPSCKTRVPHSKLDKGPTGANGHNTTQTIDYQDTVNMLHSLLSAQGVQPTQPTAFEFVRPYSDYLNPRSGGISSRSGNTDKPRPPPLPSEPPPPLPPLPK
T1 sequence (Q9NYV4 713-1052 K965R): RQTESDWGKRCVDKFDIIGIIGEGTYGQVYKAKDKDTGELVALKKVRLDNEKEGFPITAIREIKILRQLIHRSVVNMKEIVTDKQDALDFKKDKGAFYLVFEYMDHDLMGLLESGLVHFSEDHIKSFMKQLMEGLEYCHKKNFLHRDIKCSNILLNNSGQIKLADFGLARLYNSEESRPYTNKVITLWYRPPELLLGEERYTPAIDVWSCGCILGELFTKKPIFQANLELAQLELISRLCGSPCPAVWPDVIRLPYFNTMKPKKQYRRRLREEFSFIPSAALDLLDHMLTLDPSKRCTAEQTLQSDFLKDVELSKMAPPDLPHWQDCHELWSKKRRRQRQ
T1 sequence (O75909 1-267 partner): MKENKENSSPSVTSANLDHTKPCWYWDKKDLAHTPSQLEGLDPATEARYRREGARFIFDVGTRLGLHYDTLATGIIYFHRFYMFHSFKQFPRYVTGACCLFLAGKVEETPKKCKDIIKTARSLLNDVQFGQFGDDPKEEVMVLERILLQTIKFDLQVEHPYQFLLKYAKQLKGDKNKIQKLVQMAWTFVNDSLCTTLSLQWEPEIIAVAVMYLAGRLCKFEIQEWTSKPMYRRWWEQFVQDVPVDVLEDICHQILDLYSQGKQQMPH
T1 sequence (Q16531 whole entry): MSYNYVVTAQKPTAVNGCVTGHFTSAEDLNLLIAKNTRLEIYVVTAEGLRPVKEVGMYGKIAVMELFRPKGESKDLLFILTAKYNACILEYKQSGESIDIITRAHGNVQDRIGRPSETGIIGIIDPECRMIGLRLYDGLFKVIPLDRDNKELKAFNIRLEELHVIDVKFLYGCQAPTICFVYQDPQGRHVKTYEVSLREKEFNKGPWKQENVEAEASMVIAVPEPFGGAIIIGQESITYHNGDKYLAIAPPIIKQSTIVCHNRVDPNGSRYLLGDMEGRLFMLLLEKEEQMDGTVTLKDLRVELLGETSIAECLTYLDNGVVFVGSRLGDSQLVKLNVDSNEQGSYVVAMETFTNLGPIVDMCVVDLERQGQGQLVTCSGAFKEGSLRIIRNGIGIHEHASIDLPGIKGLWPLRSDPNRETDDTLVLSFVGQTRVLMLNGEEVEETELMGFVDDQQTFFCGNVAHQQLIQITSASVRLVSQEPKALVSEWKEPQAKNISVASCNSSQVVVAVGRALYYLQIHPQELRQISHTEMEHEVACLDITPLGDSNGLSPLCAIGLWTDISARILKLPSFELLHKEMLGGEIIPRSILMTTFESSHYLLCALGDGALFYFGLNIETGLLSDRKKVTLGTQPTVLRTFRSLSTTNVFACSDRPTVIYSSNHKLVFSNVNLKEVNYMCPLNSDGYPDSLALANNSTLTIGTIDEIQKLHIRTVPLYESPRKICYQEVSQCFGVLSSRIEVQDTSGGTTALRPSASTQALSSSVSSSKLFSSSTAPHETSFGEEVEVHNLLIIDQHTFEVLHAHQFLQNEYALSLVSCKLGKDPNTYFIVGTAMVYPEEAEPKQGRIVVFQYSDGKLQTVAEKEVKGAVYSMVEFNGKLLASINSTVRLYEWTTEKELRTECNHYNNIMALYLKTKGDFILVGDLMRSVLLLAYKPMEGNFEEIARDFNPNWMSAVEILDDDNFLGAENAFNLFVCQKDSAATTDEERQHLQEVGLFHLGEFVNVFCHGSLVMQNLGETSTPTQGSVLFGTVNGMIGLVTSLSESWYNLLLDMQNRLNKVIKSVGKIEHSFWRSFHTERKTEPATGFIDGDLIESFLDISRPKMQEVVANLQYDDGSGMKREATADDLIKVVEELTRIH
Chain of CDK12–cyclin K (Q9NYV4 713-1052): as the sequence (Q9NYV4 713-1052 K965R) above, with R253K counted along it
Chain of CDK12–cyclin K (O75909 1-267 partner limits assumed): as the sequence (O75909 1-267 partner) above

**Q.** Which IC50 (CDK12–cyclin K; Supplementary Table 2, read-out: Lanthascreen IC50 [nM] CDK12) does the source give for Cn1cc(-c2cnn3c(NCc4nc5cc(Cl)c(Cl)cc5[nH]4)nc(N4CCOCC4)nc23)cn1 [DS74] here?
**A.** 25 nM

**Q.** And the “Lanthascreen raw signal, sheet CDK12” value (CDK12–cyclin K; compound 1.02544 nM)?
**A.** 0.009355 and 0.008483

**Q.** What about the “Lanthascreen raw signal, sheet CDK12” value (CDK12–cyclin K; compound 3.15521 nM) of the same molecule?
**A.** 0.00952 and 0.009538

**Q.** And the “Lanthascreen raw signal, sheet CDK12” value (CDK12–cyclin K; compound 9.46563 nM)?
**A.** 0.009122 and 0.008857

**Q.** And the “Lanthascreen raw signal, sheet CDK12” value (CDK12–cyclin K; compound 31.5521 nM)?
**A.** 0.006579 and 0.007668

**Q.** And the “Lanthascreen raw signal, sheet CDK12” value (CDK12–cyclin K; compound 99.3891 nM)?
**A.** 0.005593 and 0.007192

**Q.** What about the “Lanthascreen raw signal, sheet CDK12” value (CDK12–cyclin K; compound 315.521 nM) of the same molecule?
**A.** 0.006881 and 0.006508

**Q.** What about the “Lanthascreen raw signal, sheet CDK12” value (CDK12–cyclin K; compound 3155.21 nM) of the same molecule?
**A.** 0.007229 and 0.005774

**Q.** And the “Lanthascreen raw signal, sheet CDK12” value (CDK12–cyclin K; compound 10002 nM)?
**A.** 0.005716 and 0.005184

**Q.** And the “TR-FRET signal at compound concentration 0.468 nM” value (CDK12–cyclin K and DDB1; compound concentration 0.468 nM, raw replicate titration data)?
**A.** 0.2798 and 0.3065 and 0.1782 and 0.1849

**Q.** And the “TR-FRET signal at compound concentration 2.16 nM” value (CDK12–cyclin K and DDB1; compound concentration 2.16 nM, raw replicate titration data)?
**A.** 0.3614 and 0.3498 and 0.2211 and 0.2229

**Q.** And the “TR-FRET signal at compound concentration 3.6 nM” value (CDK12–cyclin K and DDB1; compound concentration 3.6 nM, raw replicate titration data)?
**A.** 0.435 and 0.4393 and 0.2978 and 0.2973

**Q.** What about the “TR-FRET signal at compound concentration 7.92001 nM” value (CDK12–cyclin K and DDB1; compound concentration 7.92001 nM, raw replicate titration data) of the same molecule?
**A.** 0.5995 and 0.6274 and 0.4373 and 0.4353

**Q.** What about the “TR-FRET signal at compound concentration 15.84 nM” value (CDK12–cyclin K and DDB1; compound concentration 15.84 nM, raw replicate titration data) of the same molecule?
**A.** 0.9577 and 0.9944 and 0.7392 and 0.7343

**Q.** What about the “TR-FRET signal at compound concentration 30.96 nM” value (CDK12–cyclin K and DDB1; compound concentration 30.96 nM, raw replicate titration data) of the same molecule?
**A.** 1.593 and 1.564 and 1.2847 and 1.436

**Q.** And the “TR-FRET signal at compound concentration 62.6401 nM” value (CDK12–cyclin K and DDB1; compound concentration 62.6401 nM, raw replicate titration data)?
**A.** 1.875 and 1.832 and 1.71 and 1.6908

**Q.** What about the “TR-FRET signal at compound concentration 125.28 nM” value (CDK12–cyclin K and DDB1; compound concentration 125.28 nM, raw replicate titration data) of the same molecule?
**A.** 1.954 and 1.862 and 1.734 and 1.741

**Q.** What about the “TR-FRET signal at compound concentration 244.8 nM” value (CDK12–cyclin K and DDB1; compound concentration 244.8 nM, raw replicate titration data) of the same molecule?
**A.** 2.043 and 1.982 and 1.799 and 1.754

**Q.** And the “TR-FRET signal at compound concentration 993.601 nM” value (CDK12–cyclin K and DDB1; compound concentration 993.601 nM, raw replicate titration data)?
**A.** 2.0625 and 2.016 and 1.825 and 1.774

**Q.** And the “TR-FRET signal at compound concentration 2001.6 nM” value (CDK12–cyclin K and DDB1; compound concentration 2001.6 nM, raw replicate titration data)?
**A.** 1.983 and 1.981 and 1.797 and 1.763

**Q.** And the EC50 (CDK12–cyclin K and DDB1; in vitro complex formation, 50 nM CDK12–cyclin K, 100 nM DDB1, text and figures, read-out: TR-FRET EC50)?
**A.** 20 ± 1 nM

**Q.** What about the EC50 (CDK12–cyclin K and DDB1; sheet MOESM7, read-out: log TR-FRET EC50 (converted)) of the same molecule?
**A.** 19.8 nM

**Q.** And the EC50 (CDK12–cyclin K and DDB1; source data sheet correlations, read-out: TR-FRET EC50)?
**A.** 19.8 nM

**Q.** And the EC50 (HEK293T cells; Homo sapiens, HEK-293T, HEK293T viability, 72 h, compound alone, read-out: Cellular assays EC50)?
**A.** 104 nM

**Q.** And the Toxicity rescue (HEK293T cells; MLN4924-mediated cytotoxicity rescue, 10 µM used where n.d.)?
**A.** 916%

**Q.** What about the “Lanthascreen signal, sheet CDK2” value (CDK2–cyclin A; Compound 1.02544 nM) of the same molecule?
**A.** 0.01044 and 0.01012

**Q.** And the “Lanthascreen signal, sheet CDK2” value (CDK2–cyclin A; Compound 3.15521 nM)?
**A.** 0.0108 and 0.009644

**Q.** What about the “Lanthascreen signal, sheet CDK2” value (CDK2–cyclin A; Compound 9.46563 nM) of the same molecule?
**A.** 0.01089 and 0.009432

**Q.** What about the “Lanthascreen signal, sheet CDK2” value (CDK2–cyclin A; Compound 31.5521 nM) of the same molecule?
**A.** 0.01098 and 0.01188

**Q.** What about the “Lanthascreen signal, sheet CDK2” value (CDK2–cyclin A; Compound 99.3891 nM) of the same molecule?
**A.** 0.011 and 0.01075

**Q.** What about the “Lanthascreen signal, sheet CDK2” value (CDK2–cyclin A; Compound 315.521 nM) of the same molecule?
**A.** 0.009926 and 0.01051

**Q.** What about the “Lanthascreen signal, sheet CDK2” value (CDK2–cyclin A; Compound 3155.21 nM) of the same molecule?
**A.** 0.01049 and 0.01005

**Q.** And the “Lanthascreen signal, sheet CDK2” value (CDK2–cyclin A; Compound 10002 nM)?
**A.** 0.009311 and 0.007215

**Q.** And the IC50 (CDK2–cyclin A; Lanthascreen, average, Extended Data Fig. 8, read-out: CDK2 IC50)?
**A.** > 10000 nM

**Q.** What about the IC50 (CDK2–cyclin A; Supplementary Table 2, read-out: Lanthascreen IC50 [nM] CDK2) of the same molecule?
**A.** > 10000 nM

**Q.** What about the DC50 [1] of the same molecule?
**A.** 51 nM

**Q.** And the IC50 (CDK9–cyclin T; Supplementary Table 2, read-out: Lanthascreen IC50 [nM] CDK9)?
**A.** 2580 nM

**Q.** And the “Lanthascreen TR-FRET signal (raw ratio), sheet CDK9” value (CDK9–cyclin T; compound 1.02544 nM)?
**A.** 0.01642 and 0.01407

**Q.** What about the “Lanthascreen TR-FRET signal (raw ratio), sheet CDK9” value (CDK9–cyclin T; compound 3.15521 nM) of the same molecule?
**A.** 0.01297 and 0.01448

**Q.** What about the “Lanthascreen TR-FRET signal (raw ratio), sheet CDK9” value (CDK9–cyclin T; compound 9.46563 nM) of the same molecule?
**A.** 0.01462 and 0.01504

**Q.** And the “Lanthascreen TR-FRET signal (raw ratio), sheet CDK9” value (CDK9–cyclin T; compound 31.5521 nM)?
**A.** 0.01422 and 0.01715

**Q.** What about the “Lanthascreen TR-FRET signal (raw ratio), sheet CDK9” value (CDK9–cyclin T; compound 99.3891 nM) of the same molecule?
**A.** 0.0151 and 0.01375

**Q.** And the “Lanthascreen TR-FRET signal (raw ratio), sheet CDK9” value (CDK9–cyclin T; compound 315.521 nM)?
**A.** 0.01436 and 0.01406

**Q.** What about the “Lanthascreen TR-FRET signal (raw ratio), sheet CDK9” value (CDK9–cyclin T; compound 3155.21 nM) of the same molecule?
**A.** 0.01124 and 0.01046

**Q.** And the “Lanthascreen TR-FRET signal (raw ratio), sheet CDK9” value (CDK9–cyclin T; compound 10002 nM)?
**A.** 0.00772 and 0.01002
